Measured values published in patent publication US10160755B2 (Plexxikon Inc., priority 2015, dated 2018).

Key:
[1] = molecular target: T1, FLT3-ITD (Homo sapiens, UniProt P36888); experiment: FLT3-ITD biochemical kinase assay (AlphaScreen)
T1 construct: FLT3-ITD; Invitrogen #PV6190
T1 sequence (P36888 1-993): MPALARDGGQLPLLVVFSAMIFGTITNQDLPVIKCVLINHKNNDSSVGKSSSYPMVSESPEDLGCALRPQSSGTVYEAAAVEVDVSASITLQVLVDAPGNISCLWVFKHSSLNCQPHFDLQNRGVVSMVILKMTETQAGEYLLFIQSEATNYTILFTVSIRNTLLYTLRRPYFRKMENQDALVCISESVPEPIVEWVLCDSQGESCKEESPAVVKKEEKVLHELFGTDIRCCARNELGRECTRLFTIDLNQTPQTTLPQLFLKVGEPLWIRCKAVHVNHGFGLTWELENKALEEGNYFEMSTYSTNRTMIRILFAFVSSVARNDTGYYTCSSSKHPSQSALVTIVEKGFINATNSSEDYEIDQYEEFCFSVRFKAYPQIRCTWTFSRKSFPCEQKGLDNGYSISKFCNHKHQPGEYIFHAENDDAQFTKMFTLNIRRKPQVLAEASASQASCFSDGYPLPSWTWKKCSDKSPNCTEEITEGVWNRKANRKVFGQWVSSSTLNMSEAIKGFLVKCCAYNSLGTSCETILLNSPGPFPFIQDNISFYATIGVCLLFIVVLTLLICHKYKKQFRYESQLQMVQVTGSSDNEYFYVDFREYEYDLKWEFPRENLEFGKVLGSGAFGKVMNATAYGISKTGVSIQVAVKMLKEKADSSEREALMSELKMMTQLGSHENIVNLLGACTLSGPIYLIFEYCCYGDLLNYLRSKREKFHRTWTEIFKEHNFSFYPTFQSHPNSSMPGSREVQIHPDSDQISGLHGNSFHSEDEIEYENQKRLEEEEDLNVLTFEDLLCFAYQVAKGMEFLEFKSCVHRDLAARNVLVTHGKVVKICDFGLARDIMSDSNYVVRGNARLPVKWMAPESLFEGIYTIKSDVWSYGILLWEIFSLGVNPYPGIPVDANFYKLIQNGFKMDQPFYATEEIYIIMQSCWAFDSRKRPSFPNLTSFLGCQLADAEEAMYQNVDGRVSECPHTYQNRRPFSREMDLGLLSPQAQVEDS
Outline: (§1)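 Recombinant kinase, biotin-GG(EEEEY)10EE 30 nM final, ATP 10 μM (D835Y) / 100 μM (ITD). Stop/detect: SA donor beads 20 min RT, then PY20 acceptor beads 60 min RT. AlphaScreen 580 nm signal; IC50.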

[2] = molecular target: T2, FLT3-D835Y (Homo sapiens, UniProt P36888, D835Y); experiment: FLT3-D835Y biochemical kinase assay (AlphaScreen)
T2 construct: purchased Invitrogen PV3967
T2 sequence (P36888 27-993 D835Y): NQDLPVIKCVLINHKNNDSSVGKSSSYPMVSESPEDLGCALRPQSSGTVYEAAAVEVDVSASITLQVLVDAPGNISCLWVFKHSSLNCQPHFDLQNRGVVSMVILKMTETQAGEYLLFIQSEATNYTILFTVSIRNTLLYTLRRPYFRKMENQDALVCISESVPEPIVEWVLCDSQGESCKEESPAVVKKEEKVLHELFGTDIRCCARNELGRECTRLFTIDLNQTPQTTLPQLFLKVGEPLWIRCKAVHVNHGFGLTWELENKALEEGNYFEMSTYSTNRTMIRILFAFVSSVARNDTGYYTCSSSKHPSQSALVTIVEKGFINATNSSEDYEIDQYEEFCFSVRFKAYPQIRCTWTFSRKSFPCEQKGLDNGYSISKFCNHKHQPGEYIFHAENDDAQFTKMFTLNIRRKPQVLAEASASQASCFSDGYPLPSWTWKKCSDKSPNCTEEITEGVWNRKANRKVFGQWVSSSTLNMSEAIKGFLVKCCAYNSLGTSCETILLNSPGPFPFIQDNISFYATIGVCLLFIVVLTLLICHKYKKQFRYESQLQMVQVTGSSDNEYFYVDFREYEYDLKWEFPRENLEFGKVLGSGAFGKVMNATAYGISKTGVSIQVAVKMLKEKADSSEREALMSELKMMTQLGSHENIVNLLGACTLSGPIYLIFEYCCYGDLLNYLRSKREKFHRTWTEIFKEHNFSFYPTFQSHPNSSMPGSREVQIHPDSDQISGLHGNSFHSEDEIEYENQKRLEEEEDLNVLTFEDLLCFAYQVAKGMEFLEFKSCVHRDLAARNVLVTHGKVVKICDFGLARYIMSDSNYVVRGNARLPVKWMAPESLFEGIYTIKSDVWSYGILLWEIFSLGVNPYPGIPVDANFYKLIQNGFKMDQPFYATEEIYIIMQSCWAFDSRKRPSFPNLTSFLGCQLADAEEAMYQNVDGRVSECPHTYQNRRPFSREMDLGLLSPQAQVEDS
Outline: as §1

Structure (SMILES)	IC50 [1] [µM]	IC50 [2] [µM]
FC(F)(F)Cn1cc(-c2cnc3[nH]cc(-c4ccc5ncn(C6CCCNC6)c5c4)c3c2)cn1 (centres unmarked) [P-275, 1-(3-piperidyl)-6-[5-[1-(2,2,2-trifluoroethyl)pyrazol-4-yl]-1H-pyrrolo[2,3-b]pyridin-3-yl]benzimidazole]	0.0001 to 1	0.0001 to 1
c1cc(N2CCCCC2)ncc1-c1cnc2[nH]cc(-c3ccc4ncn(C5CCCNC5)c4c3)c2n1 (centres unmarked) [P-348, 7-[3-(3-piperidyl)benzimidazol-5-yl]-2-[6-(1-piperidyl)-3-pyridyl]-5H-pyrrolo[2,3-b]pyrazine]	0.0001 to 1	0.0001 to 1
Cc1ncc(-c2cnc3[nH]cc(-c4ccc5ncn(C(C)(C)C)c5c4)c3n2)cn1 [P-289, 7-(3-tert-butylbenzimidazol-5-yl)-2-(2-methylpyrimidin-5-yl)-5H-pyrrolo[2,3-b]pyrazine]	0.0001 to 1	0.0001 to 1
CC(C)(C)n1cnc2ccc(-c3c[nH]c4ncc(-c5ccc(N6CCCCC6)cc5)nc34)cc21 [P-345, 7-(3-tert-butylbenzimidazol-5-yl)-2-[4-(1-piperidyl)phenyl]-5H-pyrrolo[2,3-b]pyrazine]	0.0001 to 1	0.0001 to 1
CCN1CCN(c2cc(-c3cnc4[nH]cc(-c5ccc6ncn(C7CCCNC7)c6c5)c4n3)ccn2)CC1 (centres unmarked) [P-327, 2-[2-(4-ethylpiperazin-1-yl)-4-pyridyl]-7-[3-(3-piperidyl)benzimidazol-5-yl]-5H-pyrrolo[2,3-b]pyrazine]	0.0001 to 1	0.0001 to 1

Second part, the compound after the results:

IC50 [1] [µM]	IC50 [2] [µM]	Structure (SMILES)
0.0001 to 1	0.0001 to 1	CCN1CCN(c2cccc(-c3cnc4[nH]cc(-c5ccc6ncn(C7CCCNC7)c6c5)c4n3)c2)CC1 (centres unmarked) [P-329, 2-[3-(4-ethylpiperazin-1-yl)phenyl]-7-[3-(3-piperidyl)benzimidazol-5-yl]-5H-pyrrolo[2,3-b]pyrazine]
0.0001 to 1	0.0001 to 1	CC(C)(C)n1cnc2ccc(-c3c[nH]c4ncc(-c5ccnc(C#N)c5)cc34)cc21 [P-291, 4-[3-(3-tert-butylbenzimidazol-5-yl)-1H-pyrrolo[2,3-b]pyridin-5-yl]pyridine-2-carbonitrile]
0.0001 to 1	0.0001 to 1	CC(C)(C)n1cnc2ccc(-c3c[nH]c4ncc(-c5cccc(N6CCCCC6)c5)nc34)cc21 [P-336, 7-(3-tert-butylbenzimidazol-5-yl)-2-[3-(1-piperidyl)phenyl]-5H-pyrrolo[2,3-b]pyrazine]
0.0001 to 1	0.0001 to 1	CC(C)(C)n1cnc2ccc(-c3c[nH]c4ncc(-c5ccnc(N6CCCCC6)c5)nc34)cc21 [P-338, 7-(3-tert-butylbenzimidazol-5-yl)-2-[2-(1-piperidyl)-4-pyridyl]-5H-pyrrolo[2,3-b]pyrazine]
0.0001 to 1	0.0001 to 1	CC(C)(O)c1ncc(-c2cnc3[nH]cc(-c4ccc5ncn(C(C)(C)C)c5c4)c3n2)cn1 [P-380, 2-[5-[7-(3-tert-butylbenzimidazol-5-yl)-5H-pyrrolo[2,3-b]pyrazin-2-yl]pyrimidin-2-yl]propan-2-ol]
